Test results from patent US11472808B2, “Substituted pyrrolo[1,2-c]pyrimidines as hepatitis B antiviral agents” (Enanta Pharmaceuticals, Inc., priority 2019, dated 2022).

Columns and labels:
[1] = tested on: HBV; assay: HepAD38 anti-HBV assay: reduction of viral product accumulation (virion DNA qPCR, HBsAg/HBeAg ELISA); assay type: cell-based; conditions: Hepatitis B virus, 120 h; HepAD38 cells; concentration reducing viral product accumulation by 50% relative to no drug controls; harvest five days after compound addition; read-out: HepAD38 EC50
Method in brief: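 Tetracycline-free HepAD38 cells treated 5 days with compound (1:200 DMSO dilution), or 8 days with media and compound refreshed on d2 and d5. Virion DNA quantified by qPCR; HBsAg or HBeAg by ELISA. EC50 is the concentration reducing viral product accumulation 50% versus no-drug controls.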

[2] = Compound toxicity, ATPLite total ATP levels; assay type: cell-based; conditions: human, HepG2 cells; concentration reducing total ATP levels by 50% relative to no drug controls; ATPLite three days after compound addition
Protocol: Compound toxicity is evaluated by seeding cells at 15,000 cells/well and treating with compound as described above.

Compound	EC50 [1]	CC50 at 3 days [2]
O=S(=O)(N[C@H]1CC2=C(c3ccn(C(F)F)n3)[C@H](c3ccc(F)cc3Cl)N=C(c3nccs3)N2C1)c1cn[nH]c1 [Example 20]	< 0.1 µM	> 25 µM
O=S(=O)(N[C@H]1CC2=C(c3ccn(C(F)F)n3)[C@H](c3ccc(F)cc3Cl)N=C(c3nccs3)N2C1)c1cnn(S(=O)(=O)c2cn[nH]c2)c1 [Example 21]	< 0.1 µM	10 to 25 µM
O=S(=O)(CCl)N[C@H]1CC2=C(c3ccn(C(F)F)n3)[C@H](c3ccc(F)cc3Cl)N=C(c3nccs3)N2C1 [Example 70]	< 0.1 µM	> 25 µM
O=C1OCCN1S(=O)(=O)N[C@H]1CC2=C(c3ccn(C(F)F)n3)[C@H](c3ccc(F)cc3Cl)N=C(c3nccs3)N2C1 [Example 72]	< 0.1 µM	> 25 µM
O=S(=O)(N[C@H]1CC2=C(c3ccn(C(F)F)n3)[C@H](c3ccc(F)cc3Cl)N=C(c3nccs3)N2C1)N1CCCCC1 [Example 73]	< 0.1 µM	10 to 25 µM
O=S(=O)(N[C@H]1CC2=C(c3ccn(C(F)F)n3)[C@H](c3ccc(F)cc3Cl)N=C(c3nccs3)N2C1)N1CCOCC1 [Example 74]	< 0.1 µM	> 25 µM
O=S(=O)(N[C@H]1CC2=C(c3ccn(C(F)F)n3)[C@H](c3ccc(F)cc3Cl)N=C(c3nccs3)N2C1)N1CCC(O)CC1 [Example 75]	< 0.1 µM	> 25 µM
O=S(=O)(NCCO)N[C@H]1CC2=C(c3ccn(C(F)F)n3)[C@H](c3ccc(F)cc3Cl)N=C(c3nccs3)N2C1 [Example 78]	< 0.1 µM	> 25 µM
O=S(=O)(NCCCO)N[C@H]1CC2=C(c3ccn(C(F)F)n3)[C@H](c3ccc(F)cc3Cl)N=C(c3nccs3)N2C1 [Example 79]	< 0.1 µM	> 25 µM
COCCNS(=O)(=O)N[C@H]1CC2=C(c3ccn(C(F)F)n3)[C@H](c3ccc(F)cc3Cl)N=C(c3nccs3)N2C1 [Example 80]	< 0.1 µM	> 25 µM
CN(CCO)S(=O)(=O)N[C@H]1CC2=C(c3ccn(C(F)F)n3)[C@H](c3ccc(F)cc3Cl)N=C(c3nccs3)N2C1 [Example 81]	< 0.1 µM	> 25 µM
O=S(=O)(N[C@H]1CC2=C(c3ccn(C(F)F)n3)[C@H](c3ccc(F)cc3Cl)N=C(c3nccs3)N2C1)N1CCC(CO)CC1 [Example 88]	< 0.1 µM	> 25 µM
O=S(=O)(N[C@H]1CC2=C(c3ccn(C(F)F)n3)[C@H](c3ccc(F)cc3Cl)N=C(c3nccs3)N2C1)N1CCC(O)(CO)CC1 [Example 89]	< 0.1 µM	> 25 µM
O=S(=O)(N[C@H]1CC2=C(c3ccn(C(F)F)n3)[C@H](c3ccc(F)cc3Cl)N=C(c3nccs3)N2C1)N1CC[C@H](O)C1 [Example 91]	< 0.1 µM	> 25 µM
O=S(=O)(N[C@H]1CC2=C(c3ccn(C(F)F)n3)[C@H](c3ccc(F)cc3Cl)N=C(c3nccs3)N2C1)N1CC[C@@H](O)C1 [Example 92]	< 0.1 µM	> 25 µM
O=S(=O)(N[C@H]1CC2=C(c3ccn(C(F)F)n3)[C@H](c3ccc(F)cc3Cl)N=C(c3nccs3)N2C1)N1CCC[C@H](O)C1 [Example 93]	< 0.1 µM	> 25 µM
O=S(=O)(N[C@H]1CC2=C(c3ccn(C(F)F)n3)[C@H](c3ccc(F)cc3Cl)N=C(c3nccs3)N2C1)N1CCC[C@@H](O)C1 [Example 94]	< 0.1 µM	> 25 µM
O=S(=O)(N[C@H]1CC2=C(c3ccn(C(F)F)n3)[C@H](c3ccc(F)cc3Cl)N=C(c3nccs3)N2C1)N1CC(O)C1 [Example 95]	< 0.1 µM	> 25 µM
O=S(=O)(N[C@H]1CC2=C(c3ccn(C(F)F)n3)[C@H](c3ccc(F)cc3Cl)N=C(c3nccs3)N2C1)N1CCC(O)(C(O)CO)CC1 (stereo partly shown) [Example 96]	< 0.1 µM	> 25 µM
O=C1CCC(S(=O)(=O)N[C@H]2CC3=C(c4ccn(C(F)F)n4)[C@H](c4ccc(F)cc4Cl)N=C(c4nccs4)N3C2)CC1 [Example 97]	< 0.1 µM	> 25 µM
O=S(=O)(N[C@H]1CC2=C(c3ccn(C(F)F)n3)[C@H](c3ccc(F)cc3Cl)N=C(c3nccs3)N2C1)[C@H]1CC[C@H](O)CC1 [Example 98]	< 0.1 µM	> 25 µM
O=S(=O)(N[C@H]1CC2=C(c3ccn(C(F)F)n3)[C@H](c3ccc(F)cc3Cl)N=C(c3nccs3)N2C1)[C@H]1CC[C@@H](O)CC1 [Example 99]	< 0.1 µM	> 25 µM
O=S(=O)(N[C@H]1CC2=C(c3ccn(C(F)F)n3)[C@H](c3ccc(F)cc3Cl)N=C(c3nccs3)N2C1)[C@H]1C[C@@H]1c1ccccn1 [Example 390]	0.1 to 0.4 µM	–
O=S(=O)(N[C@H]1CC2=C(c3ccn(C(F)F)n3)[C@H](c3ccc(F)cc3Cl)N=C(c3nccs3)N2C1)[C@H]1C[C@H]1c1ccccn1 [Example 391]	0.1 to 0.4 µM	–
O=S(=O)(N[C@H]1CC2=C(c3ccn(C(F)F)n3)[C@H](c3ccc(F)cc3Cl)N=C(c3nccs3)N2C1)c1ccc(F)cc1 [Example 392]	0.1 to 0.4 µM	–
O=S(=O)(N[C@H]1CC2=C(c3ccn(C(F)F)n3)[C@H](c3ccc(F)cc3Cl)N=C(c3nccs3)N2C1)c1ccc(F)c(F)c1 [Example 393]	0.1 to 0.4 µM	–

Compound	EC50 [1]	CC50 at 3 days [2]
O=S(=O)(N[C@H]1CC2=C(c3ccn(C(F)F)n3)[C@H](c3ccc(F)cc3Cl)N=C(c3nccs3)N2C1)c1cc(Cl)cc(Cl)c1 [Example 395]	0.1 to 0.4 µM	–
O=S(=O)(N[C@H]1CC2=C(c3ccn(C(F)F)n3)[C@H](c3ccc(F)cc3Cl)N=C(c3nccs3)N2C1)c1cccc(Cl)c1F [Example 396]	0.1 to 0.4 µM	–
O=S(=O)(N[C@H]1CC2=C(c3ccn(C(F)F)n3)[C@H](c3ccc(F)cc3Cl)N=C(c3nccs3)N2C1)c1ccc2ncccc2c1 [Example 397]	< 0.1 µM	–
O=S(=O)(N[C@H]1CC2=C(c3ccn(C(F)F)n3)[C@H](c3ccc(F)cc3Cl)N=C(c3nccs3)N2C1)c1ccc2ncsc2c1 [Example 398]	< 0.1 µM	–
O=S(=O)(N[C@H]1CC2=C(c3ccn(C(F)F)n3)[C@H](c3ccc(F)cc3Cl)N=C(c3nccs3)N2C1)c1cccc(C(F)(F)F)c1 [Example 399]	0.1 to 0.4 µM	–
O=S(=O)(N[C@H]1CC2=C(c3ccn(C(F)F)n3)[C@H](c3ccc(F)cc3Cl)N=C(c3nccs3)N2C1)c1ccc(-c2ccccn2)s1 [Example 400]	< 0.1 µM	–
O=S(=O)(N[C@H]1CC2=C(c3ccn(C(F)F)n3)[C@H](c3ccc(F)cc3Cl)N=C(c3nccs3)N2C1)c1c(Cl)cccc1Cl [Example 402]	0.1 to 0.4 µM	–
Cn1cc(S(=O)(=O)N[C@H]2CC3=C(c4ccn(C(F)F)n4)[C@H](c4ccc(F)cc4Cl)N=C(c4nccs4)N3C2)cn1 [Example 404]	< 0.1 µM	–
CC1(S(=O)(=O)N[C@H]2CC3=C(c4ccn(C(F)F)n4)[C@H](c4ccc(F)cc4Cl)N=C(c4nccs4)N3C2)CC1 [Example 405]	< 0.1 µM	–
O=S(=O)(N[C@H]1CC2=C(c3ccn(C(F)F)n3)[C@H](c3ccc(F)cc3Cl)N=C(c3nccs3)N2C1)c1ccc(C(F)(F)F)cc1 [Example 406]	< 0.1 µM	–
O=S(=O)(N[C@H]1CC2=C(c3ccn(C(F)F)n3)[C@H](c3ccc(F)cc3Cl)N=C(c3nccs3)N2C1)c1cc(F)cc(F)c1 [Example 407]	0.1 to 0.4 µM	–
O=S(=O)(N[C@H]1CC2=C(c3ccn(C(F)F)n3)[C@H](c3ccc(F)cc3Cl)N=C(c3nccs3)N2C1)c1cccc(C2CC2)n1 [Example 408]	< 0.1 µM	–
O=S(=O)(N[C@H]1CC2=C(c3ccn(C(F)F)n3)[C@H](c3ccc(F)cc3Cl)N=C(c3nccs3)N2C1)c1cccc(-c2ccccc2)n1 [Example 409]	< 0.1 µM	–
O=S(=O)(N[C@H]1CC2=C(c3ccn(C(F)F)n3)[C@H](c3ccc(F)cc3Cl)N=C(c3nccs3)N2C1)c1cc(F)c(F)c(F)c1 [Example 412]	< 0.1 µM	–
CC(C)[C@]1(O)CC[C@@H](c2ccc(S(=O)(=O)N[C@H]3CC4=C(c5ccn(C(F)F)n5)[C@H](c5ccc(F)cc5Cl)N=C(c5nccs5)N4C3)cc2)CC1 [Example 413]	< 0.1 µM	–
CC(C)[C@]1(O)CC[C@H](c2ccc(S(=O)(=O)N[C@H]3CC4=C(c5ccn(C(F)F)n5)[C@H](c5ccc(F)cc5Cl)N=C(c5nccs5)N4C3)cc2)CC1 [Example 414]	< 0.1 µM	–
O=S(=O)(NC1CCC1)N[C@H]1CC2=C(c3ccn(C(F)F)n3)[C@H](c3ccc(F)cc3Cl)N=C(c3nccs3)N2C1 [Example 415]	< 0.1 µM	–
CC1(NS(=O)(=O)N[C@H]2CC3=C(c4ccn(C(F)F)n4)[C@H](c4ccc(F)cc4Cl)N=C(c4nccs4)N3C2)CCC1 [Example 416]	< 0.1 µM	–
O=S(=O)(NC1CCCCC1)N[C@H]1CC2=C(c3ccn(C(F)F)n3)[C@H](c3ccc(F)cc3Cl)N=C(c3nccs3)N2C1 [Example 417]	< 0.1 µM	–
Fc1ccc([C@@H]2N=C(c3nccs3)N3C[C@@H](Nc4ccccn4)CC3=C2c2ccn(C(F)F)n2)c(Cl)c1 [Example 418]	0.1 to 0.4 µM	–
O=C(N[C@H]1CC2=C(c3ccn(C(F)F)n3)[C@H](c3ccc(F)cc3Cl)N=C(c3nccs3)N2C1)C(=O)c1ccccc1 [Example 419]	0.1 to 0.4 µM	–
O=C(Nc1ccc(F)c(F)c1)c1cccc(S(=O)(=O)N[C@H]2CC3=C(c4ccn(C(F)F)n4)[C@H](c4ccc(F)cc4Cl)N=C(c4nccs4)N3C2)c1 [Example 422]	0.1 to 0.4 µM	–
O=S(=O)(N[C@H]1CC2=C(c3ccn(C(F)F)n3)[C@H](c3ccc(F)cc3Cl)N=C(c3nccs3)N2C1)c1cccc(-n2cccn2)n1 [Example 423]	0.1 to 0.4 µM	–
O=S(=O)(N[C@H]1CC2=C(c3ccn(C(F)F)n3)[C@H](c3ccc(F)cc3Cl)N=C(c3nccs3)N2C1)C1(C[C@H](O)CO)CC1 [Example 425]	< 0.1 µM	–
O=S(=O)(CCCO)N[C@H]1CC2=C(c3ccn(C(F)F)n3)[C@H](c3ccc(F)cc3Cl)N=C(c3nccs3)N2C1 [compound 313]	< 0.1 µM	–
